Tests used:
RXR = test: apoA1 "A" site reporter co-transfection in HepG-2 cells with RXR; format: cell-based
Source text: (§1) This work focused on studying the transcriptional properties of the retinoid receptors RAR and RXR on a reporter molecule (e.g., luciferase) under control of a basal promoter containing the RXR response element from the apoA1 gene ("A" site). Plasmid constructs coding for the various receptors were transfected into a human hepatocyte cell line (HepG-2) along with the reporter plasmid. […] Widom et al., Mol. Cell. […] After transfection, treatment, harvest, and assay, the data obtained was normalized to transfected beta-galactosidase activity so as to control for transfection efficiency.

Rhino mice = test: comedolytic test on Rhino mice; format: in vivo
RAR = test: apoA1 "A" site reporter co-transfection in HepG-2 cells with RAR; format: cell-based
Source text: as §1

[1] = tested on: RPMI18226, a multiple myeloma; test: growth of RPMI18226 tumor cells (cell number, semi-solid medium); format: cell-based, human; conditions: cell number and growth in semi-solid medium
Source text: (§2) The effects on growth of these cells were monitored by evaluation of cell number, and also by evaluation of growth in semi-solid medium for the RPMI18226 cell line. […] The therapeutic index is defined as the ratio of efficacy to toxicity of a compound.

[2] = tested on: ME180, a squamous cell carcinoma; test: growth of ME180 tumor cells (cell number); format: cell-based, human
Source text: as §2

[3] = rats
Method: Male Sprague-Dawley rats (160-200 gram) were obtained from Harlan. Animals were fed standard laboratory diets (Harlan/Teklad) and kept in an environmentally controlled animal house with a light period lasting from 6 a.m. to 6 p.m. Animals were treated with drugs prepared as suspensions in olive oil.
Plasma was separated and stored at 4° C. for evaluation of plasma total cholesterol and high density lipoprotein cholesterol (HDL-cholesterol).
Plasma total cholesterol was measured enzymatically utilizing Boeringer Mannheim Diagnostics High Performance Cholesterol Methods with an ABBOTT VP Bichromatic Analyzer. HDL cholesterol was measured after preparation of the HDL-containing fraction by heparin-manganese precipitation of plasma. HDL-cholesterol in this fraction was estimated as mentioned earlier. All HDL separations were checked for contamination by other lipoproteins with agarose gel electrophoresis.
Serum samples were taken and analyzed by Western Blot using antisera specific to rat apoA1.

RXRβ = biological target: T1, RXRβ (Mus musculus, UniProt P28704); test: co-transfection (cis-trans) assay in CV-1 cells, RXRβ; format: cell-based; conditions: CV-1, read-out: Efficacy RXRβ
T1 construct: expressed in transfected cells; host or cells: CV-1 (monkey kidney)
T1 sequence (P28704 1-520): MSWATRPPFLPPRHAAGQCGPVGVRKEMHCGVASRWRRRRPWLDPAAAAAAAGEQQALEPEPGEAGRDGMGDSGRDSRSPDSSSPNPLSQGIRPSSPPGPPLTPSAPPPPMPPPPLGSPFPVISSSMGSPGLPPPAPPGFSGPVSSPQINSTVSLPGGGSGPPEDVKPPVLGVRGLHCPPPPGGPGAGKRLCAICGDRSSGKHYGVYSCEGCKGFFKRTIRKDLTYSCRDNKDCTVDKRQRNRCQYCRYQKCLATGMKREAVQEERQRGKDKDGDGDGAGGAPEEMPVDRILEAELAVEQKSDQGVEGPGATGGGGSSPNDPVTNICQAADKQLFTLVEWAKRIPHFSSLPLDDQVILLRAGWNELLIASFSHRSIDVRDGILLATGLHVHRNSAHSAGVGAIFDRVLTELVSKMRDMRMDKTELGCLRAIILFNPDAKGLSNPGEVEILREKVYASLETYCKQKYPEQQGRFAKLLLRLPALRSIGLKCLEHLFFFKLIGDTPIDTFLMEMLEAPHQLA
Source text: The co-transfection assay provides a mechanism to evaluate the ability of a compound to modulate the transcription response initiated by an intracellular receptor. […] Berger et al., J. Steroid Biochem. Molec.
Briefly, the co-transfection assay involves the introduction of two plasmids by transient transfection into a retinoid receptor-negative mammalian cell background. The first plasmid contains a retinoid receptor cDNA and directs constitutive expression of the encoded receptor. The second plasmid contains a cDNA that encodes for a readily quantifiable protein, e.g., firefly luciferase or chloramphenicol acetyl transferase (CAT), under control of a promoter containing a retinoid acid response element, which confers retinoid dependence on the transcription of the reporter. In this co-transfection assay, all retinoid receptors respond to all-trans-retinoic acid in a similar fashion. This assay can be used to accurately measure efficacy and potency of retinoic acid and synthetic retinoids as ligands that interact with the individual retinoid receptor subtypes.
Accordingly, synthetic retinoid compounds of the current invention were evaluated for their interaction with retinoid receptor subtypes using the co-transfection assay in which CV-1 cells were co-transfected with one of the retinoid receptor subtypes, a reporter construct, and an internal control to allow normalization of the response for transfection efficiency. The following example is illustrative.
Retinoids: All-trans-retinoic acid (RA) and 13-cis-retinoic acid (13-cis-RA) were obtained from Sigma. […] Retinoids were dissolved in dimethylsulfoxide for use in the transcriptional activation assays.
Co-transfection Assay In CV-1 Cells: A monkey kidney cell line, CV-1, was used in the cis-trans assay. Cells were transfected with two plasmids. […] The cis-vector contains an easily assayable gene product, in this case the firefly luciferase, coupled to a retinoid-responsive promoter, i.e., an RARE or RXRE. Addition of retinoic acid or an appropriate synthetic retinoid results in the formation of a retinoid-RAR or -RXR complex that activates the expression of luciferase gene, causing light to be emitted from cell extracts. The level of luciferase activity is directly proportional to the effectiveness of the retinoid-receptor complex in activating gene expression. This sensitive and reproducible co-transfection approach permits the identification of retinoids that interact with the different receptor isoforms.
Cells were cultured in DMEM supplemented with 10% charcoal resin-stripped fetal bovine serum, and experiments were conducted in 96-well plates. […] Cells were transfected for 6 h and then washed to remove the precipitate. The cells were then incubated for 36 h with or without retinoid. After the transfection, all subsequent steps were performed on a Beckman Biomek Automated Workstation. […] All determinations were performed in triplicate in two independent experiments and were normalized for transfection efficiency by using β-galactosidase as the internal control. […] Efficacy values less than 5% are not statistically different than the 0% background.

RXRα/PPAR = biological target: T2, RXRα/PPAR (UniProt P19793+P23204); test: co-transfection of RXRα and PPAR into HepG2 cells, target reporter gene; format: cell-based; conditions: HepG2, read-out: Normalized Response (%)
T2 construct: expressed in transfected cells; host or cells: HepG2
Source text: Specifically, peroxisome proliferator-activated receptor (PPAR) is a member of the intracellular receptor super family that plays a role in the modulation of lipid homeostasis. […] These agents, called peroxisome proliferators, have been used in man as hypolipidemic agents.

[4] = tested on: myeloma cell line (RPMI 8226); test: thymidine incorporation assay in myeloma cell line RPMI 8226; format: cell-based; conditions: RPMI 8226 myeloma cells, FIG. 11
Source text: This assay examines the incorporation of radiolabeled thymidine into DNA, and by determining the ability of a compound to inhibit thymidine incorporation into DNA, provides a measure of cell proliferation.

HL60 = test: thymidine incorporation assay in HL60 cells; format: cell-based

T2 sequence (P23204 whole entry): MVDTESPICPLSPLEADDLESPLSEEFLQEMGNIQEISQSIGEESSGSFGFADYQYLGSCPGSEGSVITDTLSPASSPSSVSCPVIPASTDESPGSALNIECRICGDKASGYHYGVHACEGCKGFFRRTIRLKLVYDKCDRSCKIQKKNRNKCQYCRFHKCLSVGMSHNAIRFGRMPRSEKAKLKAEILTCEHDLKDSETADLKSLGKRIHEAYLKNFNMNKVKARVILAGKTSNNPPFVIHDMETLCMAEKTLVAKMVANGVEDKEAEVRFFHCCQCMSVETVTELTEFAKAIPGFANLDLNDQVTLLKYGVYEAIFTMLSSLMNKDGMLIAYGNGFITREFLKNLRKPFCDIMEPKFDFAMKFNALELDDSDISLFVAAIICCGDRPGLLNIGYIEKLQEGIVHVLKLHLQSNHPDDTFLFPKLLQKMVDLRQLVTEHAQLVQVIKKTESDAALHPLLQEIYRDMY
T2 sequence (P19793 whole entry): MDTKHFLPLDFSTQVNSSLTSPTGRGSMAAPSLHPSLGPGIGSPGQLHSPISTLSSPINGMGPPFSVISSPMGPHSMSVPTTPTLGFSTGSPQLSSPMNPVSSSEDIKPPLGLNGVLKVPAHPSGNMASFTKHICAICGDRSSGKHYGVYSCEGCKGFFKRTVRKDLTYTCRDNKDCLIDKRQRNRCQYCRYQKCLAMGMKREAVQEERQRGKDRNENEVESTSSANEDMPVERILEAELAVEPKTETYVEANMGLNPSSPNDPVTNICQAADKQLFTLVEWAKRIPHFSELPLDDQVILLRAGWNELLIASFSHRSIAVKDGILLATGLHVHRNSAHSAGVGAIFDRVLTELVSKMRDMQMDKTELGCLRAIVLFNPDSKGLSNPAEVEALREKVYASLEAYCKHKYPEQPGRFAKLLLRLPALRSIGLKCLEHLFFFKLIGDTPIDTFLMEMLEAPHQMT

## Cc1cc2c(cc1C(=O)c1ccc(C(=O)O)cc1)C(C)(C)CCC2(C)C [3-methyl-TTNCB, 4-[(3,5,5,8,8-pentamethyl-5,6,7,8-tetrahydro-2-naphthyl)carbonyl]benzoic acid]
RXR
  activation of apoA1 "A" site reporter with RXR: activation in the system
Rhino mice; 0.1% solution, topical, Rhino mice, FIG. 9
  inhibition of utriculi diameter: approximately 50%
Rhino mice; compared with 9-cis- or all-trans-retinoic acid
  irritation to the skin of Rhino mice: less irritating to the skin of Rhino mice than 9-cis- or all-trans-retinoic acid
RAR
  effect on apoA1 "A" site reporter with RAR: no effect

## C=C(c1ccc(C(=O)O)cc1)c1cc2c(cc1C)C(C)(C)CCC2(C)C [3-methyl-TTNEB, 4-[1-(3,5,5,8,8-pentamethyl-5,6,7,8-tetrahydro-2-naphthyl)ethenyl]benzoic acid]
[1]
  cell growth: inhibit cell growth in a concentration-dependent manner
[2]
  cell growth: inhibit cell growth in a concentration-dependent manner
[3]; 4 days
  total cholesterol: an increase due to the increase of the HDL-cholesterol fraction
[3]; 4 days, 0.3 mg/kg i.p.
  plasma HDL-cholesterol at the lowest dose: significant increases
[3]; orally 3 mg/kg daily for four days, Western Blot of serum
  circulating apoA1 levels: significant increase in circulating apoA1 levels

## CC1=C(/C=C/C(C)=C\C=C\C(C)=C\C(=O)O)C(C)(C)CCC1 [9-cis-retinoic acid, reference compound]
RXRβ
  Emax: 140%

## CC(C)(Oc1ccc(Cl)cc1)C(=O)O [clofibric Acid, clofibric acid]
RXRα/PPAR
  Emax: 100%

## C/C(=C\c1ccc(C(=O)O)cc1)c1ccc2c(c1)C(C)(C)CCC2(C)C [TTNPB]
[4]
  concentrations providing essentially no effect on cell proliferation: less than 10^-11 M

## CC1=C(/C=C/C(C)=C/C=C/C(C)=C/C(=O)O)C(C)(C)CCC1 [all-trans-retinoic acid, All-trans-retinoic acid]
HL60
  cellular proliferation (thymidine incorporation): inhibits thymidine incorporation

— US6043279A, “Compounds having selective activity for retinoid X receptors, and means for modulation of processes mediated by retinoid X receptors” (priority 1997, dated 2000)
